In ChEMBL document CHEMBL1201862, “PubChem BioAssay data set” (2004):
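Dose response: 5 concentrations. Exposure: 48 h. Format: 96-well plates. Endpoint: linear interpolation; highest concentration if not reached. The concentration for 50% growth inhibition is given as GI50.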 Calls of active or inactive are those of the source. No stated cut-off is given here; in the data, active = GI50 up to about 1.1 µM and inactive = higher.

Experiments:
Test in all cases: NCI anticancer screen, dose series, 48 h
[1] = tested on: DMS-273
[2] = tested on: DLD-1
[3] = tested on: DMS-114
[4] = tested on: RXF 631
[5] = tested on: M19-MEL
[6] = tested on: XF498
[7] = tested on: LXFL 529
[8] = tested on: HOP-18
[9] = tested on: SNB-78

Measured: GI50

CN(O)C(=O)c1ccccc1
inactive: [1] > 100 µM | [2] > 100 µM | [3] > 100 µM | [4] > 100 µM | [5] > 100 µM | [6] > 100 µM | [7] > 100 µM

OCCN1CCN(CC/C=C2/c3ccccc3Sc3ccc(Cl)cc32)CC1
inactive: [1] 6.05 µM | [8] 1.5 µM | [2] 13.4 µM | [3] 16.4 µM | [9] 15.8 µM | [5] 1.94 µM | [6] 12.6 µM | [7] 5.74 µM

CC[N+]1(C)CCC(O)(c2ccc(OC)cc2)C(C(=O)c2ccc(OC)cc2)C1 (configuration not stated)
inactive: [1] 19 µM | [8] 14.7 µM | [2] 2.88 µM | [3] 19.9 µM | [9] 14.8 µM | [4] 18.5 µM | [5] 20.5 µM | [6] 11 µM | [7] 3.49 µM

COc1ccc(-c2nc(SC)n(C3OC(COC(C)=O)C(OC(C)=O)C(OC(C)=O)C3OC(C)=O)c(=O)c2C#N)cc1 (configuration not stated)
inactive: [9] 21 µM | [7] 35.2 µM

COc1ccc(-c2onc(-c3ccc([N+](=O)[O-])cc3)c2C2=NCCCN2)cc1
inactive: [8] 3.4 µM | [2] > 100 µM | [9] > 100 µM | [5] > 100 µM | [6] > 100 µM | [7] > 100 µM

O=C(O)Cc1cc(=O)[nH]c2c1/C(=N/O)CCC2
inactive: [8] > 100 µM | [2] > 100 µM | [6] > 100 µM | [7] > 100 µM

Cc1cc2nc3c(=O)n(C)c(=O)nc-3n(-c3ccc(Cl)cc3)c2cc1C
inactive: [1] 5.62 µM | [8] 6.87 µM | [2] 14.5 µM | [3] 3.1 µM | [9] 18.5 µM | [5] 2.32 µM | [6] 1.29 µM | [7] 14 µM

CCOC(=O)c1sc(Nc2cc(Cl)ccc2Cl)nc1C
inactive: [8] > 100 µM | [2] 44.7 µM | [3] 93.3 µM | [9] > 100 µM | [4] > 100 µM | [5] > 100 µM | [6] 48.4 µM | [7] 91.4 µM

C=C1C2Oc3ccccc3C1N(c1ccccc1)O2 (configuration not stated)
inactive: [1] > 10 µM | [2] 26.7 µM | [3] 23.3 µM | [4] 16 µM | [5] 42.7 µM | [6] 17.4 µM | [7] 35.2 µM

CCCCc1c2c(nc3c1CCCC3=O)C(=O)CCC2
inactive: [1] > 100 µM | [8] > 100 µM | [2] > 100 µM | [3] > 100 µM | [9] > 100 µM | [5] > 100 µM | [6] > 100 µM | [7] > 100 µM

CCCCCCCCCCNC(=S)OC
inactive: [1] 51.5 µM | [8] > 100 µM | [2] 36.8 µM | [3] 15.6 µM | [9] 53.3 µM | [4] 62.1 µM | [5] 29 µM | [7] 33.7 µM

Cc1ccc(C)c(N2C(=O)C(=O)C(c3nc4ccccc4o3)/C(=N\NC(=O)c3ccccc3O)C2=O)c1 (configuration not stated)
inactive: [1] 6.14 µM | [8] 20.9 µM | [2] 28.9 µM | [3] 20.1 µM | [9] 6.08 µM | [5] 64.7 µM | [7] 31.8 µM
